Where two headings read alike, the source gives them in different places.
Experiments:
in vivo = assay: in vivo; parameters: species or system white rabbits; details: rabbit
Description: (§1) Hair was removed from the abdomen of a white rabbits weighing 2.0 to 2.5 kg with an electric clipper and the abdomen was then shaved with an electric razor carefully so as not to hurt the skin. A glass cell kept at a constant temperature by circulation of warm water was fixed thereon with a quick adhesive (Alon Alpha® of Toa Gosei Co.) through a membrane sample.
(§2) A drug solution was placed in the glass cell and the concentration of the drug in the blood was determined at time intervals over 48 h. In this experiment, the blood sample was taken from the ear vein of the rabbit at given time intervals and the drug concentration was analyzed according to liquid chromatography.
(§3) The polymer membrane and the drug solution used in this experiment were prepared as follows: in the example of the present invention, a polypropylene membrane (Celgard® 2402 having a port diameter of 0.02 μm and porosity of 38%) was immersed in 15% or 20% solution of polyoxyethylene(3 mol) trimethylolpropane tristearate (TPS-303® of Nippon Emulsion Co.) in chloroform for one hour and then air-dried to obtain the membrane. The drug solution used in this example was 50% aqueous N-methyl-2-pyrrolidone solution further containing 0.01 g/ml of indomethacin.
In a comparative example, about 1 wt.% of indomethacin was mixed in 100 parts by weight of an ointment base comprising 40% of ethyl alcohol, 58.4% of water, 1.5% of a polycarboxylic acid (Carbopol 940® of Goodrich Chemical Co.) and 0.1% of triethanolamine to prepare an ointment. 3 g of the ointment was placed in the constant temperature glass cell. No polymer membrane was used.

[1] = plaster of clonidine; American Heart Journal, 217-222, July (1984); cited from earlier work
[2] = Cumulative amount of nitroglycerin permeated through hairless rat skin, two-chamber diffusion cell; format: in vitro ADME; details: 38° C.
Description: The same membrane sample as that of Example 2 and the same skin of hairless rat as that of Example 3 were mounted in the glass 2-chamber diffusion cell in the same manner as described above. 0.1% aqueous nitroglycerin solution was placed in the donor-side chamber and a phosphate buffer solution (pH 7.4) was placed in the receiver chamber. An increase of the concentration of nitroglycerin in the receiver chamber with time was determined by HPLC. As a control, only the skin free from the sample membrane was used in the experiment of the permeation of nitroglycerin through the skin. The experiment was conducted at 38° C.

[3] = Ketoprofen concentration in the blood after application to rabbit abdomen; format: in vivo, white rabbits
Description: as §1, §2, §3
A change of the concentration of ketoprofen in the blood was investigated with the same polymer membrane in the same manner as those of Example 6 except that 3 ml of 30% aqueous ethanol solution in which 0.01 g/ml of ketoprofen had been suspended was used.

[4] = Amount of acetaminophen permeated through hairless rat skin with membrane, two-chamber diffusion cell; format: in vitro ADME, WBN/Kob hairless rats
Description: The skin of the abdomen of WBN/Kob hairless rats ("Saitama" experimental animal) was taken under anesthesia (60 mg/kg pentobarbital, I.P.). A membrane sample prepared in the same manner as that of Example 3 was applied to the corneous layer-side of the skin specimens and they were placed in a glass two-chamber diffusion cell. 10% aqueous ethanol solution containing 2.4% of acetaminophen dissolved therein was placed in a donor-side chamber thereof and a phosphate buffer solution (pH 7.4) was placed in a receiver-side chamber. Increase in acetaminophen concentration in the receiver-side chamber with time was determined by HPLC.

[5] = rabbit, blood, topical or ocular, 32° C., read-out: Concentration of drug in blood
[6] = rabbit, blood, topical or ocular, 38° C., read-out: Concentration of drug in blood

Compound: COc1ccc2c(c1)c(CC(=O)O)c(C)n2C(=O)c1ccc(Cl)cc1 [indomethacin]
- Concentration of drug in blood (in vivo; 360 min): 0 ng/mL
- Concentration of drug in blood (in vivo; 2880 min): 0 ng/mL
- Concentration of drug in blood (in vivo; topical or ocular, 6 h): 22 ng/mL
- concentration at 6 h (in vivo; topical or ocular, Concentration of drug in blood): 20 ng/mL

Compound: Clc1cccc(Cl)c1N=C1NCCN1 [clonidine]
- Time to attain an effective concentration in the blood [1]: three

Compound: O=[N+]([O-])OCC(CO[N+](=O)[O-])O[N+](=O)[O-] [nitroglycerin]
- Cumulative amount of permeated nitroglycerin ([2]; With polymer membrane of the present invention, 2 h): 26 μg/cm^2
- Cumulative amount of permeated nitroglycerin ([2]; With polymer membrane of the present invention, 4 hr): 92 μg/cm^2
- Cumulative amount of permeated nitroglycerin ([2]; With polymer membrane of the present invention, 6 hr): 185 μg/cm^2
- Cumulative amount of permeated nitroglycerin ([2]; With polymer membrane of the present invention, 8 hr): 274 μg/cm^2
- Cumulative amount of permeated nitroglycerin ([2]; With polymer membrane of the present invention, 10 hr): 365 μg/cm^2
- Cumulative amount of permeated nitroglycerin ([2]; Without polymer membrane (skin only), 2 h): 8 μg/cm^2
- Cumulative amount of permeated nitroglycerin ([2]; Without polymer membrane (skin only), 4 hr): 44 μg/cm^2
- Cumulative amount of permeated nitroglycerin ([2]; Without polymer membrane (skin only), 6 hr): 101 μg/cm^2
- Cumulative amount of permeated nitroglycerin ([2]; Without polymer membrane (skin only), 8 hr): 154 μg/cm^2
- Cumulative amount of permeated nitroglycerin ([2]; Without polymer membrane (skin only), 10 hr): 218 μg/cm^2

Compound: CC(C(=O)O)c1cccc(C(=O)c2ccccc2)c1 (stereo not shown) [ketoprofen]
- Concentration of drug in blood ([3]; 32° C., 6 hr): 0 ng/mL
- concentration at 24 h [3, 5]: 18 ng/mL
- concentration at 48 h [3, 5]: 17 ng/mL
- concentration at 6 h ([3]; rabbit, blood, topical or ocular, 38° C., 6 hr, read-out: Concentration of drug in blood): 740 ng/mL
- concentration at 24 h [3, 6]: 410 ng/mL
- concentration at 48 h [3, 6]: 300 ng/mL

Compound: CC(=O)Nc1ccc(O)cc1 [acetaminophen]
- Amount of drug permeated through the skin ([4]; 32° C., 2 hr): 0 μg/cm^2
- Amount of drug permeated through the skin ([4]; 32° C., 4 hr): 0 μg/cm^2
- Amount of drug permeated through the skin ([4]; 32° C., 12 hr): 0 μg/cm^2
- Amount of drug permeated through the skin ([4]; 32° C., 24 hr): 2 μg/cm^2
- Amount of drug permeated through the skin ([4]; 32° C., 36 hr): 5 μg/cm^2
- Amount of drug permeated through the skin ([4]; 38° C., 2 hr): 1 μg/cm^2
- Amount of drug permeated through the skin ([4]; 38° C., 4 hr): 3 μg/cm^2
- Amount of drug permeated through the skin ([4]; 38° C., 12 hr): 60 μg/cm^2
- Amount of drug permeated through the skin ([4]; 38° C., 24 hr): 170 μg/cm^2
- Amount of drug permeated through the skin ([4]; 38° C., 36 hr): 330 μg/cm^2
